According to patent publication US7989495B2, “Compositions and methods for inhibiting NF-κB mediated tumorigenicity and adhesion dependent survival of cancer cells” (University of Utah Research Foundation, priority 2002, dated 2011):

Experiments:
[1] = tested on: HT-29 colon cancer cell line; experiment: Cell proliferation assay (crystal violet, 590 nm); type: cell-based; conditions: 10 μM, cultured 8 days
Method: DLD-1, HCT-116, and HT-29 colon cancer cell lines were obtained from the ATCC collection and were cultured in Dulbecco's Modification of Eagle's Medium supplemented with 10% fetal bovine serum, glutamine, penicillin, and streptomycin. 293 cells stably transfected with COX-2 (293-COX-2) under the control of a ponasterone sensitive promoter were cultured in Dulbecco's Modification of Eagle's Medium supplemented with 10% fetal bovine serum, 400 μg/ml of zeocin, 400 μg/ml of G418, glutamine, penicillin, and streptomycin. For induction of COX-2 protein expression, 293-COX-2 cells were cultured for 48 hours in media supplemented with 1 μg/ml of ponasterone. All cells were cultured at 37° C. in a humidified incubator with a 5% CO2 atmosphere.
For the cell proliferation assay, cells were dispersed and plated at 40,000 cells/well in 96-well dishes. At various days in culture, the cells were gently washed twice with 100 μl/well of ice-cold blocking buffer (1% radioimmunoassay grade BSA in PBS) and twice with 100 μl/well of ice-cold PBS. The cells were fixed for 10 min in 100% ice-cold methanol (100 μl/well), then allowed to air-dry. The cells were stained with 100μl/well of 0.1% crystal violet in H2O for 10 minutes, then washed gently four times with dd H20 and four times with PBS. The plates were then air-dried completely. The stained cells were then solubilized in 1% sodium deoxycholate, and the plates read at 590 nm in a spectrophotometer. The absorption at 590 nm is proportional to the number of attached cells.

HCT-116 xenografts = experiment: Subcutaneous colon cancer xenograft in athymic mice; type: in vivo
Method: DLD-1, HCT-116, and HT-29 cells were cultured for 6 days in soft agar in the presence of DMSO (control), 10 μM BAY 11-7082, or 10 μM BAY 11-7085. The data points represent the means of colony counts per field (20×) performed in 5 different regions of the culture dishes. The data shown represent a typical result of two separate experiments. FIGS. 2B,C, show athymic mice received subcutaneous injections of HT-29 (B) or HCT-116 (C) cells, followed by […] of BAY 11-7085 (dark bars) or DMSO (white bars) intraperitoneally twice weekly. The bars represent the 25-75% ranges of the tumor volumes and the horizontal lines in the bars are the medians. Using the Kruskal-Wallace statistical test to compare the median tumor volumes between BAY 11-7085 and DMSO yielded a p-value of 0.005 for HT-29 cells but >0.05 for HCT-116 cells.
HT-29 and HCT-116 cells were harvested in 0.25% trypsin-PBS-EDTA, washed once in media and PBS, and resuspended in PBS at 1 million cells per 200 μL. One million cells were injected either subcutaneously in the backs or intraperitoneally in 5 week old female nu/nu athymic mice (Charles River Labs). For the mice with subcutaneous tumors, the tumors were allowed to establish themselves for 10 days after which they were randomized to BAY 11-7085 or DMSO. For the mice with intraperitoneal tumors, the mice received DMSO or BAY 11-7085 (5 mg/kg) 24 hours before the cancer cells were injected intrapentoneally. All mice received BAY 11-7085 (5 mg/kg) or an equal volume of DMSO (˜200 μL) twice weekly for 21-32 days. Subcutaneous tumor sizes were determined by measuring the length and width with calipers. These studies were approved by the U. of Utah Institutional Review Board and Institutional Animal Care and Use Committee and performed in the Animal Resource Center. Mice were euthanized when they experienced a greater than 10% loss in body weight or if they appeared ill. Post-mortem examinations included sectioning of kidney, lung, and liver tissues which were stained with hematoxylin and eosin followed by examination for tissue toxicity/damage by an experienced mouse pathologist (E.J.E.) who was blinded to therapy.
(Wang et al., 1999) However, BAY 11-7082 or BAY 11-7085 alone inhibit colon cancer xenograft growth in athymic mice. HC-116, and HT-29 cell lines were used to generate subcutaneous tumors in athymic female mice. The mice were subsequently randomized to be treated with vehicle (DMSO) alone or BAY 11-7085 1 mg/kg twice weekly for 28 days.

CC(C)(C)c1ccc(S(=O)(=O)/C=C/C#N)cc1 [BAY 11-7085, (2E)-3-[4-(tertiarybutylphenyl)sulfonyl]-2-propenenitrile]
inhibition of cell proliferation [1]: greatly inhibited cell proliferation
p-value, Kruskal-Wallace test of median tumor volumes vs DMSO (HCT-116 xenografts; HCT-116, intraperitoneally twice weekly): > 0.05
tumor volumes, treatment group compared with control group (HCT-116 xenografts; HCT-116 subcutaneous tumors, 1 mg/kg twice weekly for 28 days, vs DMSO): no statistically significant overall difference in the tumor volumes
